The record followed here is patent publication US20240092784A1, “CONDENSED HETEROCYCLIC COMPOUND” (NISSAN CHEMICAL CORPORATION, priority 2020, published 2024).

What is called IC50 is the concentration at which inhibition is half-maximal.

The target in the assay is human SPR (Homo sapiens (Human), UniProt P35270). The assay is described as follows: Evaluation Example 2: Measurement of human SPR inhibitory activity (seven concentrations, sepiapterin absorbance at 420 nm). As to conditions: Evaluation Example 2, seven concentrations 0.14 nM to 100 nM, 240 minutes at room temperature, read-out: IC50. It counts as biochemical. How it is done: Human SPR was prepared as described below. The full-length human SPR (1-261) cDNA was purchased from Eurofins Genomics as an artificially synthesized plasmid containing a DNA sequence optimized for the E. coli expression system so that the sequence of the expressed protein after transcription and translation matches the sequence described in UniprotKB (P35270).
human SPR, sequence (P35270 whole entry): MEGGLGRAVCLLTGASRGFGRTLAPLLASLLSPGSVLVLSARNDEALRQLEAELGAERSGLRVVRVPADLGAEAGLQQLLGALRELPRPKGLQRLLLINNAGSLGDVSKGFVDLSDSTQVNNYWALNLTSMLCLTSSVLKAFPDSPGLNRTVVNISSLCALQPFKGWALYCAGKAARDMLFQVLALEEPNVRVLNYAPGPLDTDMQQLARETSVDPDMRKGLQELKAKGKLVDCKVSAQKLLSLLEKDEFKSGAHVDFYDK
Linearized insert and vector were prepared by PCR using primers designed for amplification of human SPR cDNA and primers designed to contain the thrombin recognition sequence of pET28a (Novagen) and a polyhistidine tag. Cloning was performed using In-Fusion (registered trademark) HD Cloning Kit (TaKaRa) to thereby construct a human SPR expression plasmid. The resultant human SPR expression plasmid was transformed into BL21 (DE3) competent cells (INVITROGEN).
The cells were inoculated into LB medium (1% triptone, 0.5% yeast extract, 1% sodium chloride) containing […] of kanamycin, and then precultured at 37° C. overnight. The precultured cells were inoculated into TB medium (1.2% triptone, 2.4% yeast extract, 9.4% dipotassium hydrogen phosphate, 2.2% potassium dihydrogen phosphate, 0.8% glycerin) containing […] of kanamycin, and the cultured at 37° C., to thereby induce SPR expression with 0.5 mM IPTG for four hours. After the induction, the cells were collected by centrifugation at 6,000 G for 30 minutes and washed with PBS, and the washing was discarded. The washed cells were suspended in buffer solution A (20 mM MES, pH 6.5, 100 mM sodium chloride, 1 mM DTT, 5 mM imidazole). Subsequently, the cell suspension was subjected to ultrasonic treatment to thereby homogenize the cells. The cell homogenate was clarified by centrifugation at 30,000 G for 60 minutes and then filtered with a […]. The filtrate was allowed to pass through HisTrapFF 5 mL column (GE Healthcare). The resin was washed with buffer A, and then gradient elution was performed with buffer B (20 mM MES, pH 6.5, 100 mM sodium chloride, 1 mM DTT, 500 mM imidazole). Thrombin was added to a fraction containing the SPR protein, and the mixture was dialyzed in buffer A overnight, to thereby cleave the tag. After removal of the thrombin by with Benzamidine Sepharose 4 FF (GE Healthcare), the resultant product was allowed to pass through the HisTrapFF 5 mL column, to thereby remove the tag, followed by concentration with Amicon Ultra 10,000 NMWL (Merck Millipore). The concentrate was purified by gel filtration using HiLoad 16/60 Superdex 75 pg (GE Healthcare) equilibrated with buffer C (20 mM MES, pH 6.5, 100 mM sodium chloride, 1 mM DTT). The fraction containing SPR protein was concentrated and then cryopreserved at −80° C.
Human SPR inhibitory activity was measured by using a 384-well low adsorption clear plate (Greiner) with buffer D containing 100 mM Tris-HCl (pH 7.5) (Thermo Fisher Scientific) and 0.01% bovine serum albumin (Sigma). A compound was diluted with DMSO to achieve seven different final concentrations; i.e., 0.14 nM, 0.41 nM, 1.23 nM, 3.7 nM, 11.1 nM, 33 nM, and 100 nM. A 1.5 μL aliquot of the compound solution prepared with DMSO was diluted with 250 μL of buffer D, and the thus-diluted solution was dispensed into the 384-well plate at 20 μL/well. Thereafter, human SPR was diluted with buffer D to 150 ng/mL and then dispensed into the 384-well plate at 20 μL/well. Subsequently, 40 μL of ultrapure water containing 120 μM sepiapterin (produced by the method described in L-Sepiapterin, Heterocycles, 2008, 76, 1329-1335 and WO 2013/168693) and 160 μM NADPH (Nacalai) was added to each well, and then reaction was initiated. The reaction mixture was incubated at room temperature for 240 minutes. Thereafter, in order to determine the amount of sepiapterin, the absorbance at 420 nm was measured by applying the 384-well plate to EnSpire multimode plate reader (Perkin Elmer). The percent inhibition (%) of human SPR by the test compound was calculated by the following formula.
Turning to `CC(C)Cn1c(=O)c(C(=O)NC2CC2)c(O)n2ncc(/C=C/C(=O)N3[C@H](C)CC[C@H]3C)c12` [compound 590, N-Cyclopropyl-3-((E)-3-((2R,5R)-2,5-dimethylpyrrolidin-1-yl)-3-oxoprop-1-en-1-yl)-7-hydroxy-4-isobutyl-5-oxo-4,5-dihydropyrazolo[1,5-a]pyrimidine-6-carboxamide], the IC50 was 1.09 nM.
Consider `Cc1nn2c(O)c(C(=O)NC3CC3)c(=O)n(CC(C)C)c2c1/C=C/C(=O)N1CCN(C2CC(F)(F)C2)C[C@@H]1C` [Synthesis Example 671, (S,E)-N-Cyclopropyl-3-(3-(4-(3,3-difluorocyclobutyl)-2-methylpiperazin-1-yl)-3-oxoprop-1-en-1-yl)-7-hydroxy-4-isobutyl-2-methyl-5-oxo-4,5-dihydropyrazolo[1,5-a]pyrimidine-6-carboxamide], for which the IC50 turned out to be 1.49 nM.
On to `CC(C)(C)Cn1c(=O)c(C(=O)NC2CC2)c(O)n2nc(N)c(/C=C/C(=O)N3CCOCC3)c12` [Synthesis Example 411, (E)-2-Amino-N-cyclopropyl-7-hydroxy-3-(3-morpholino-3-oxoprop-1-en-1-yl)-4-neopentyl-5-oxo-4,5-dihydropyrazolo[1,5-a]pyrimidine-6-carboxamide], for which the IC50 was 0.65 nM.
Consider `CC[C@H]1CCCN1C(=O)/C=C/c1c(C)nn2c(O)c(C(=O)NC3CC3)c(=O)n(CC(C)C)c12` [Synthesis Example 640, (S,E)-N-Cyclopropyl-3-(3-(2-ethylpyrrolidin-1-yl)-3-oxoprop-1-en-1-yl)-7-hydroxy-4-isobutyl-2-methyl-5-oxo-4,5-dihydropyrazolo[1,5-a]pyrimidine-6-carboxamide], for which the half-maximal inhibitory concentration (IC50) was 1.16 nM.
For the compound `Cc1nccc(Nc2cc3n(CC(C)(C)C)c(=O)c(C(=O)NC4CC4)c(O)n3n2)n1` [Synthesis Example 334, N-Cyclopropyl-7-hydroxy-2-((2-methylpyrimidin-4-yl)amino)-4-neopentyl-5-oxo-4,5-dihydropyrazolo[1,5-a]pyrimidine-6-carboxamide], the 50% inhibitory concentration (IC50) was found to be 1 nM.
`C[C@@H]1COCCN1C(=O)/C=C/c1cnn2c(O)c(C(=O)NC3CC3)c(=O)n(CC3(F)CC3)c12` [Synthesis Example 380, (R,E)-N-Cyclopropyl-4-((1-fluorocyclopropyl)methyl)-7-hydroxy-3-(3-(3-methylmorpholino)-3-oxoprop-1-en-1-yl)-5-oxo-4,5-dihydropyrazolo[1,5-a]pyrimidine-6-carboxamide]: the half-maximal inhibitory concentration (IC50) worked out at 0.76 nM.
Take `Cc1nn2c(O)c(C(=O)NC3CC3)c(=O)n(CC(C)C)c2c1/C=C/C(=O)N1[C@H](C)COC[C@@H]1C` [Synthesis Example 641, N-Cyclopropyl-3-((E)-3-(cis-3,5-dimethylmorpholino)-3-oxoprop-1-en-1-yl)-7-hydroxy-4-isobutyl-2-methyl-5-oxo-4,5-dihydropyrazolo[1,5-a]pyrimidine-6-carboxamide]: the IC50 turned out to be 0.89 nM.
In the case of `Cc1nn2c(O)c(C(=O)NC3CC3)c(=O)n(CC(C)C)c2c1/C=C/C(=O)N1C[C@H](C)OC[C@H]1C` [Synthesis Example 646, N-Cyclopropyl-3-((E)-3-((2S,5R)-2,5-dimethylmorpholino)-3-oxoprop-1-en-1-yl)-7-hydroxy-4-isobutyl-2-methyl-5-oxo-4,5-dihydropyrazolo[1,5-a]pyrimidine-6-carboxamide] it was 0.87 nM.
For the compound `CC(C)Cn1c(=O)c(C(=O)NC2CC2)c(O)n2ncc(/C=C/C(=O)N3CCOC[C@H]3CO)c12` [compound 526, (R,E)-N-Cyclopropyl-7-hydroxy-3-(3-(3-(hydroxymethyl)morpholino)-3-oxoprop-1-en-1-yl)-4-isobutyl-5-oxo-4,5-dihydropyrazolo[1,5-a]pyrimidine-6-carboxamide], the 50% inhibitory concentration (IC50) is 0.67 nM.
As to `CC(C)Cn1c(=O)c(C(=O)NC2CC2)c(O)n2ncc(/C=C/C(=O)N3CC[C@H](O)C3)c12` [compound 501, (S,E)-N-Cyclopropyl-7-hydroxy-3-(3-(3-hydroxypyrrolidin-1-yl)-3-oxoprop-1-en-1-yl)-4-isobutyl-5-oxo-4,5-dihydropyrazolo[1,5-a]pyrimidine-6-carboxamide], the half-maximal inhibitory concentration (IC50) was 0.71 nM.
For the compound `CC(C)Cn1c(=O)c(C(=O)NC2CC2)c(O)n2ncc(/C=C/C(=O)N3CCOC[C@@H]3C)c12` [compound 455, (S,E)-N-Cyclopropyl-7-hydroxy-4-isobutyl-3-(3-(3-methylmorpholino)-3-oxoprop-1-en-1-yl)-5-oxo-4,5-dihydropyrazolo[1,5-a]pyrimidine-6-carboxamide], the half-inhibitory concentration (IC50) was determined as 0.72 nM.
As to `Cc1cc2n(CC(C)C)c(=O)c(C(=O)NC3CC3)c(O)n2n1` [Synthesis Example 319, N-Cyclopropyl-7-hydroxy-4-isobutyl-2-methyl-5-oxo-4,5-dihydropyrazolo[1,5-a]pyrimidine-6-carboxamide], the IC50 was 3.16 nM.
Take `Cc1nnc(/C=C/c2cnn3c(O)c(C(=O)NC4CC4)c(=O)n(CC(C)C)c23)s1` [Synthesis Example 268, (E)-N-Cyclopropyl-7-hydroxy-4-isobutyl-3-(2-(5-methyl-1,3,4-thiadiazol-2-yl)vinyl)-5-oxo-4,5-dihydropyrazolo[1,5-a]pyrimidine-6-carboxamide]: the 50% inhibitory concentration (IC50) came to 1.04 nM.
In the case of `Cc1nn2c(O)c(C(=O)NC3CC3)c(=O)n(CC(C)C)c2c1/C=C/C(=O)N1C[C@H]2COC[C@H]2C1` [Synthesis Example 628, N-Cyclopropyl-7-hydroxy-4-isobutyl-2-methyl-5-oxo-3-((E)-3-oxo-3-((3aR,6aS)-tetrahydro-1H-furo[3,4-c]pyrrol-5(3H)-yl)prop-1-en-1-yl)-4,5-dihydropyrazolo[1,5-a]pyrimidine-6-carboxamide] it was 0.84 nM.
Turning to `CC(C)Cn1c(=O)c(C(=O)NC2CC2)c(O)n2nc(N)c(/C=C/C(=O)N3CCOCC3)c12` [Synthesis Example 416, (E)-2-Amino-N-cyclopropyl-7-hydroxy-4-isobutyl-3-(3-morpholino-3-oxoprop-1-en-1-yl)-5-oxo-4,5-dihydropyrazolo[1,5-a]pyrimidine-6-carboxamide], the half-maximal inhibitory concentration (IC50) stood at 0.59 nM.
For the compound `CC(C)Cn1c(=O)c(C(=O)NC2CC2)c(O)n2ncc(/C=C/C(=O)N3CCN(C4CC(F)(F)C4)CC3)c12` [compound 460, (E)-N-Cyclopropyl-3-(3-(4-(3,3-difluorocyclobutyl)piperazin-1-yl)-3-oxoprop-1-en-1-yl)-7-hydroxy-4-isobutyl-5-oxo-4,5-dihydropyrazolo[1,5-a]pyrimidine-6-carboxamide], the IC50 amounted to 1.24 nM.
`CC(C)Cn1c(=O)c(C(=O)NC2CC2)c(O)n2ncc(/C=C/C(=O)N(C)CC3CCOCC3)c12` [compound 499, (E)-N-Cyclopropyl-7-hydroxy-4-isobutyl-3-(3-(methyl((tetrahydro-2H-pyran-4-yl)methyl)amino)-3-oxoprop-1-en-1-yl)-5-oxo-4,5-dihydropyrazolo[1,5-a]pyrimidine-6-carboxamide]: the IC50 was 0.74 nM.
With `CC(C)Cn1c(=O)c(C(=O)NC2CC2)c(O)n2ncc(/C=C/C(=O)N3CCOC[C@H]3c3ccccc3)c12` [compound 602, (R,E)-N-Cyclopropyl-7-hydroxy-4-isobutyl-5-oxo-3-(3-oxo-3-(3-phenylmorpholino)prop-1-en-1-yl)-4,5-dihydropyrazolo[1,5-a]pyrimidine-6-carboxamide], the IC50 came to 1.14 nM.
